Assay results published in US20250346943A1, “DEGRADER COMPOUNDS OF QSOX1 mRNA” (UNIVERSITY OF FLORIDA RESEARCH FOUNDATION, INCORPORATED, priority 2022, published 2025).

Columns and labels:
MDA-MB-231 TBNC cells = experiment: Viability of MDA-MB-231 cells; format: cell-based, human; parameters: dose or concentration left out as unconfirmed; settings: the highest dose
QSOX1-a mRNA = QSOX1-a mRNA abundance in RNase L-knockdown (CRISPR-edited) MDA-MB-231 cells; format: cell-based, human; settings: CRISPR-edited cells with RNase L knockdown
Method: The CRISPR-edited MDA-MB-231 cell lines used in this study were the same as those previously reported and characterized.^8 Briefly, lentiviral constructs containing Cas9 and gRNA targeting RNase L mRNA (or a scramble control) were purchased (Transomic Tech) and transfected in HEK293T cells (ATCC CRL-11268) to harvest virus. Transduction to MDA-MB-231 cells were performed in the presence of […] polybrene (Millipore, Cat #TR-1003-G) followed by selection with puromycin.
Analysis of mRNA Abundance by RT-qPCR. Unless stated otherwise, all RT-qPCR experiments were performed to measure nascent RNA levels by using Click-it Nascent RNA Capture Kit (Cat #C10365, Thermo Fisher) per the manufacturer's protocols. Briefly, cells were treated with 0.2 mM of ethynyl uridine (EU) in growth medium for 16 h, after which the medium was replaced with fresh growth medium lacking EU. Compound or ASO treatment was performed at the same time of initial EU treatment, and compounds were replenished after replacing the medium to remove EU. Total RNA was extracted by using a Zymo Quick-RNA Miniprep Kit as per manufacturer's protocol with DNase treatment. The click reaction and pull-down of nascent RNA were performed as described in “In Vitro Chemical-Crosslinking and Isolation by Pull-down (Chem-CLIP) with Fluorescently Labeled RNA”. […]

[1] = tested on: proteins of MDA-MB-231 cells (human proteome); experiment: Proteomics analysis of proteins cross-linked in MDA-MB-231 cells; format: cell-based; settings: of the 3,158 proteins detectable before pull-down
Method: Proteomic Sample Preparation and Analysis. MDA-MB-231 cells were seeded in 60 mm dishes and allowed to reach ˜80% confluency. The cells were then treated with […] of compound in growth medium and incubated for 16 h. Cells were washed with 1×DPBS and irradiated with UV light for 10 min. For each condition, two biological replicates were prepared, and each biological replicate was split into three technical replicates. […]
Pulled-down proteins were released from beads by resuspending in 6 M urea/1×PBS (0.5 mL) supplemented with 10 mM of TCEP at room temperature for 30 min. […] To the samples was added 1 volume of isopropanol containing 1% (v/v) trifluoroacetic acid, followed by a styrenedivinylbenzene reverse-phase sulfonate (SDB-RPS) StageTip 12 Peptides were resuspended in 0.1% (v/v) formic acid (FA) in water and analyzed using Proxeon EASY-nLC 1200 nano-UHPLC coupled to QExactive HF-X Quadrupole-Orbitrap mass spectrometer (Thermo Scientific). […]
The MS data were analyzed with MaxQuant13 (V1.6.1.0) and searched against the human proteome (Uniprot) and a common list of contaminants included in MaxQuant. […] The minimum peptide length was set to six amino acids and peptide re-quantification was enabled with the minimal number of peptides per protein set to 2. […]

Compound | effect on viability (MDA-MB-231 TBNC cells) | effect on QSOX1-a mRNA in RNase L-knockdown cells (QSOX1-a mRNA) | proteins selectively pulled-down (not pulled-down by the control probe) [1] [proteins]
CCOC(=O)C1=C(Nc2ccccc2)S/C(=C\c2ccc(OCCOCCOCCOCCNC(=O)CCC(=O)N(C)[C@H]3CC[C@@H](c4ccc(Cl)c(Cl)c4)c4ccccc43)c(O)c2)C1=O [Compound F1-RIBOTAC] | no effect on viability | ablated | 
C#CCCC1(CCC(=O)N(C)[C@H]2CC[C@@H](c3ccc(Cl)c(Cl)c3)c3ccccc32)N=N1 [Compound F1] |  |  | 79
